In patent publication US8822698B2, “Aminoacid derivatives, their process of preparation and their therapeutical uses as inhibitors of oncogenic signals by the Met family” (Universite D'Aix-Marseille, priority 2009, dated 2014):

Experiments:
[1] = test system: Met-triggered cell scattering, MDCK cells; assay: HGF-induced MDCK cell scattering assay; type: cell-based; conditions: Canis lupus familiaris; MDCK cells, 20 ng/ml HGF; read-out: IC50 scattering inhibition
Experimental: MDCK cells were grown in Dulbecco's modified Eagle's medium (DMEM) (Gibco BRL) containing 4 mM L-glutamine and supplemented with 2% (v/v) foetal bovine serum (Gibco BRL), 100 U/mL penicillin, and 100 μg/mL streptomycin. Cells were plated at a density of 1000 cells per well in 24-well microplates and allowed to settle overnight at 37° C. in a humidified atmosphere of 5% CO2 prior to treatments. MCF10A human breast cells, MDA-MB231 human breast cancer cells, GTL-16 human gastric carcinoma cells, HepG2 human hepatocellular carcinoma cells, U-87 human glioblastoma-astrocytoma cells and LLC Lewis lung carcinoma cells were grown in RPMI medium (Gibco BRL) containing 4 mM L-glutamine and supplemented with 2% (v/v) foetal bovine serum (Gibco BRL), 100 U/mL penicillin, and 100 μg/mL streptomycin and kept at 37° C. in a humidified atmosphere of 5% CO2.
For scattering assays, MDCK cells were pre-incubated with compounds for 2 hours at 0.1-100 μM concentrations at 37° C. in a humidified atmosphere of 5% CO2, followed by 24 hr stimulation with 20 ng/ml HGF (R&D Systems), as previously described (Patane et al., Biochem Biophys Res Commun 375, 184-189, 2008). The cells were further incubated at 37° C. in an atmosphere of 5% CO2 for 24-48 hours, washed with phosphate-buffered saline (PBS; Gibco BRL), and fixed in PFA (Sigma). The quantification of scattering response was performed by counting the number of cells with scattered morphology in 30 independent colonies. The […] corresponds to the concentration of compounds leading to a 50% inhibition of Met-triggered cell scattering. Active compounds were assayed to impair scattering response also on human breast MCF10A cells following the same procedure. For survival assays, GTL-16, HepG2 and U-87 cells were cultured in serum-free media for 24 hours prior to compound addition for 48 hours. Viability was assessed with the Cell Titer Glo Luminescent Assay (Promega). For in vitro tumorigenesis, soft agar growth assays were preformed using GTL-16, HepG2, and U-87 cells, as previously described (Patane et al., Cancer Res 66, 4750-4757, 2006).
Compounds were first submitted to a biological screening of cell motility, namely scattering response. MDCK epithelial cells acquire a “scattered phenotype” following stimulation by the Met ligand, HGF (Chan et al., J Biomol Screen. 13, 847-854, 2008; Corso et al., Trends Mol Med 11, 284-292, 2005; Patane et al., Biochem Biophys Res Commun 375, 184-189, 2008), allowing direct evaluation of compounds on Met functions. The Met inhibitor […] was used as control in all assays (Schiering et al., Proc Natl Acad Sci USA 100, 12654-12659, 2003).

[2] = test system: Met phosphorylation, HepG2 cells; assay: Met phosphorylation upon HGF stimulation in HepG2 cells; type: cell-based, human
Experimental: After starvation, cells were pretreated with inhibitors, then stimulated with HGF, and total extracts were analyzed as described (Maina et al., Mol Cell 7, 1293-1306, 2001). Antibodies used were anti-tubulin (Sigma), anti-phospho Y1234-1235-Met, anti-Akt, anti-phospho-Akt, anti-phospho-Gab1, anti phosphor-ErbBs, anti-phospho-PDGFR, anti-PDGFRs, anti-ERKs (Cell Signaling), anti-ErbBs, anti-Met (Santa Cruz).
Activation of Met by HGF can be biochemically evaluated by following its phosphorylation levels and activation of downstream targets. We started to biochemically characterise the inhibitory properties of identified compounds by following Met phosphorylation and its downstream targets in HepG2 cells. […] These findings were further supported using other cell lines, such as MDA-MB231 human breast cancer cells (FIG. 2).

[3] = Toxicity evaluation in vivo (body and organ weight); set-up: species or system mice
Experimental: The weight of nude mice treated with the compound of example 4 (30 mg kg-1) or vehicle was measured before, during and after treatment. To evaluate the weight of heart, spleen, kidney, and liver, mice were sacrified after 21 days of treatment, organs were dissected, rinsed in PBS, and weight was measured.
We evaluated whether compounds of general formula elicited toxic effects in vivo by following mouse weight before, during and after treatment. […] We also evaluated the weight of heart, spleen, kidney and liver of mice treated with the compound of example 4 or vehicle.

NCl•H226 = assay: NCI 60 human tumour cell line screen; type: cell-based; conditions: conc. 10^−5M; NCl•H226, Non-Small Cell Lung Cancer
Source text: (§1) Compound of example 4 was screened in the NCI 60 human tumour cell line anticancer drug screen (Shoemaker et al Nature reviews 6, 2006, 813-823).

RXF 393 = assay: NCI 60 human tumour cell line screen; type: cell-based; conditions: conc. 10^−5M; RXF 393, Renal Cancer
Source text: as §1

NCl-H23 = assay: NCI 60 human tumour cell line screen; type: cell-based; conditions: conc. 10^−5M; NCl-H23, Non-Small Cell Lung Cancer
Source text: as §1

SF-268 = assay: NCI 60 human tumour cell line screen; type: cell-based; conditions: conc. 10^−5M; SF-268, CNS Cancer
Source text: as §1

UACC-257 = assay: NCI 60 human tumour cell line screen; type: cell-based; conditions: conc. 10^−5M; UACC-257, Melanoma
Source text: as §1

SK-OV-3 = assay: NCI 60 human tumour cell line screen; type: cell-based; conditions: conc. 10^−5M; SK-OV-3, Ovarian Cancer
Source text: as §1

PC-3 = assay: NCI 60 human tumour cell line screen; type: cell-based; conditions: conc. 10^−5M; PC-3, Prostate Cancer
Source text: as §1

DU-145 = assay: NCI 60 human tumour cell line screen; type: cell-based; conditions: conc. 10^−5M; DU-145, Prostate Cancer
Source text: as §1

M14 = assay: NCI 60 human tumour cell line screen; type: cell-based; conditions: conc. 10^−5M; M14, Melanoma
Source text: as §1

SW-620 = assay: NCI 60 human tumour cell line screen; type: cell-based; conditions: conc. 10^−5M; SW-620, Colon Cancer
Source text: as §1

IGROV 1 = assay: NCI 60 human tumour cell line screen; type: cell-based; conditions: conc. 10^−5M; IGROV 1, Ovarian Cancer
Source text: as §1

RPMI -8226 = assay: NCI 60 human tumour cell line screen; type: cell-based; conditions: conc. 10^−5M; RPMI -8226, Leukemia
Source text: as §1

HOP-62 = assay: NCI 60 human tumour cell line screen; type: cell-based; conditions: conc. 10^−5M; HOP-62, Non-Small Cell Lung Cancer
Source text: as §1

**Q.** What does the source list for O=C(Cc1cc(C(F)(F)F)cc(C(F)(F)F)c1)N[C@@H](Cc1ccccc1)C(=O)Nc1ccc(-c2cn3c(n2)sc2ccccc23)cc1 [Example 4, (S)-2-(3,5-bis(trifluoromethyl)phenylacetamido)-3-phenyl-N-[4-(imidazo[2,1-b]benzothiazol-2-yl)phenyl]propanamide]?
**A.** IC50 [1]: 171 nM; Met phosphorylation [2]: significantly reduced; weight of heart, spleen, kidney and liver ([3]; after 21 days of treatment, versus vehicle): No differences; weight of mice ([3]; daily treated, 30 mg kg-1, compared to vehicle): No significant changes; Growth Percent (NCl•H226): 90.93%; Growth Percent (RXF 393): 47.02%; Growth Percent (NCl-H23): 39.55%; Growth Percent (SF-268): 29.28%; Growth Percent (UACC-257): 55.20%; Growth Percent (SK-OV-3): 96.62%; Growth Percent (PC-3): 38.29%; Growth Percent (DU-145): 70.37%; Growth Percent (M14): 30.58%; Growth Percent (SW-620): 12.13%; Growth Percent (IGROV 1): 13.32%; Growth Percent (RPMI -8226): 66.73%; Growth Percent (HOP-62): 80.02%
